Source: US20250382298A1, “NITROGEN-CONTAINING COMPOUND AND USE THEREOF” (SUZHOU GENHOUSE BIO CO., LTD., priority 2022, published 2025)

Assays:
[1] = tested on: HCT-116 cells; assay: Detection of cell proliferation activity by CCK8 method (HCT-116); format: cell-based; details: CCK8, 96 h
Source text: (§1) This assay can be used to examine the potency of compounds in inhibiting the proliferation of tumor cells (OVCAR3, HT-29, BT-549, HCT-116). A lower IC50 value indicates high potency of the compound as a KIF18A inhibitor in the following assay setup,
(§2) McCoy's 5A medium purchased from Sangon Biotech; CCK8 kit purchased from Beyotime; OVCAR3, HT-29, HCT-116, and BT-549 cells purchased from Shanghai Fuheng Biotechnology Co., Ltd.; multimode microplate reader (Thermo).
(§3) Cells at the logarithmic growth phase were taken, digested with a cell lysis buffer (trypsin), centrifuged, counted, and seeded into a 96-well plate at an appropriate cell density (BT549: 1500 cells/well in 1640 medium. HT-29 and HCT-116: 2000 cells/well in McCoy's 5A medium), with 180 μL per well, for a total of 60 wells. The surrounding wells were filled with an equal amount of PBS to prevent water evaporation from the edge wells. The next day after cell plating, the test compounds at different concentration gradients (with an initial final concentration of 10 μM, diluted in a 1:5 gradient to obtain 9 concentration gradients) were added to the wells. Three replicate wells were set up for each concentration point, and a corresponding DMSO negative control group was also set up. Detection: After 96 h of drug treatment, the test cell culture plate was removed from the incubator. All the liquid in the 96-well plate was aspirated, and 100 μL of medium containing 10% CCK8 solution was added to each well. The plate was then incubated at 37° C. for 2 h (the OD450 of the DMSO group reached 1.5 or more), and the absorbance at 450 nm was measured using a microplate reader
(§4) After the background value was subtracted from the measurement for each well, the inhibition rate was calculated. Inhibition Rate (%)=(1−Sample/Vehicle)×100. Sample is the luminescence value of the drug treatment group, and Vehicle is the luminescence value of the DMSO control group. A sigmoidal dose-survival rate curve was plotted using a non-linear regression model in the GraphPad Prism 7.0 software, and the IC50 values were calculated.

[2] = tested on: HCT-116 cells; assay: Mitotic index analysis, pH3 expression in HCT-116 cells; format: cell-based; details: 24 h treatment
Method: (§5) HCT-116 and HT-29 cells at the logarithmic growth phase were taken, digested with a cell lysis buffer (trypsin), centrifuged, counted, and seeded into a 96-well plate at an appropriate cell density (20000 cells/well), with 100 μL per well. The surrounding wells were filled with an appropriate amount of PBS to prevent water evaporation. The next day, the cells were treated with the compounds at different concentrations (with a starting concentration of 10 μM, 3-fold diluted to obtain 9 concentration gradients). After 24 h, the medium was aspirated, and the cells were washed twice with 100 μL of PBS. The cells were then fixed with 4% paraformaldehyde and incubated at room temperature for 15 min. The fixative solution was discarded, and the cells were washed with PBS. Then, 150 μL of specialized blocking solution (containing 1% Triton-100) was added to each well for blocking at room temperature for 2 h, and the plate was washed with PBS to remove excess blocking solution. Anti-phistone H3 (pH3) was diluted at a ratio of 1:1000 with a blocking solution containing 0.033% Triton-100, and a blank control group was set up. Then, incubation was performed at 4° C. overnight. The next day, the plate was washed twice with 1×PBST. Anti-rabbit-IgG (H+L) (CST) and DRAQ5 (Thermofisher) were each diluted at an appropriate ratio with a blocking solution containing 0.033% Triton-100 (secondary antibody: 1:2000; DRAQ5: 1:10000). Then, incubation was performed at room temperature for 2 h. The plate was washed twice with 1×PBST and once with PBS. Fluorescence signals at 700 nm and 800 nm were detected using a Li—COR Odyssey two-color near-infrared laser imager. Calculation was performed as follows: pH3 expression (%)=(Cmpd dose/DMSO control)×100. Cmpd dose is the value of the drug treatment group, and DMSO control is the value of the DMSO control group. The EC50 values were determined by fitting using the GraphPad Prism 7.0 software.

[3] = tested on: BT-549 cells; assay: Detection of cell proliferation activity by CCK8 method (BT-549); format: cell-based; details: CCK8, 96 h
Source text: as §1, §2, §3, §4

[4] = Pharmacokinetic test in mice; format: in vivo; details: BALB/c mice, PO @30mpk; for AUC / Cmax / half-life: mouse, plasma, 30 mg/kg; for half-life: read-out: t½ (converted)
Method: In this example, the pharmacokinetic behavior of the compounds after intravenous injection (IV) and intragastric (PO) administration in BALB/c mice was tested.
On the day of administration, mice were weighed for actual body weight and the administration volume was calculated. Each compound was tested in two groups with 9 mice in each group; one group was subjected to administration by single intravenous injection, and the other group of mice was subjected to single intragastric administration. Whole blood samples were collected via the orbit at prescribed time points (0.25 h, 0.5 h, 1 h, 2 h, 4 h, 8 h, and 24 h after administration). After blood sample collection, the samples were immediately transferred to labeled commercial sample tubes containing K2-EDTA (0.85-1.15 mg), followed by centrifugation (3200×g, 4° C., 10 min) and plasma collection. The plasma was transferred to a pre-cooled centrifuge tube, frozen in dry ice, and then stored in an ultra-low temperature freezer at −60° C. or lower until the LC-MS/MS analysis.
Plasma concentrations were determined by the LC-MS/MS method. Plasma drug concentration data for the compounds were processed using a non-compartmental model in the WinNonlin Version 6.3 (Pharsight, Mountain View, CA) pharmacokinetic software. The relevant pharmacokinetic parameters were calculated by a linear-log trapezoidal method.

[5] = tested on: HT-29 cells; assay: Mitotic index analysis, pH3 expression in HT-29 cells; format: cell-based, human; details: Homo sapiens, 24 h treatment
Method: as §5

[6] = tested on: OVCAR3 cells; assay: Detection of cell proliferation activity by CCK8 method (OVCAR3); format: cell-based
Source text: as §1, §2, §3, §4

[7] = tested on: OVCAR3 cells; assay: Detection of OVCAR3 cell proliferation activity by CTG method; format: cell-based; details: Homo sapiens, OVCAR-3, 168 h, CellTiter-Glo, 7 days
Source text: as §1
1640 medium; fetal bovine serum; penicillin/streptomycin antibiotics purchased from Wisent; CellTiter-Glo (chemiluminescence detection reagent for cell viability) reagent purchased from Promega; OVCAR3 cell line purchased from Nanjing Cobioer Biosciences Co., Ltd.; Nivo multimode microplate reader (PerkinElmer),
OVCAR3 cells were seeded into a white 96-well plate, with 80 μL of cell suspension containing 2000 OVCAR3 cells added to each well. The cell plate was incubated in a CO2 incubator overnight.
A test compound was 5-fold diluted to the 8th concentration (i.e., from 2 mM to […]) using a multichannel pipette, with duplicate wells set up. To an intermediate plate was added 78 μL of medium, and the serially diluted compound was transferred to the corresponding wells of the intermediate plate at 2 μL/well. The mixture was mixed well and then transferred to the cell plate at 20 μL/well. The concentration of the compound transferred to the cell plate ranged from 10 μM to 0.026 nM. The cell plate was incubated in a CO2 incubator for 7 days. Another cell plate was prepared and read for signal values on the day of compound addition, and these values were used as the maximum values (the Max value in the equation below) in data analysis. To this cell plate was added the chemiluminescence detection reagent for cell viability at 25 μL/well, and the luminescence signals were stabilized by incubation at room temperature for 10 min. Readings were taken using the multimode microplate reader.
To the cell plate was added the chemiluminescence detection reagent for cell viability at 25 μL/well, and the luminescence signals were stabilized by incubation at room temperature for 10 mm. Readings were taken using the multimode microplate reader, […]

[8] = tested on: HT-29 cells; assay: Detection of cell proliferation activity by CCK8 method (HT-29); format: cell-based, human; details: CCK8, 96 h
Source text: as §1, §2, §3, §4

[9] = biological target: KIF18A (Homo sapiens (Human), UniProt Q8NI77); assay: KIF18A enzymatic activity inhibition, ADP-Glo kit; format: biochemical; details: 4 nM KIF18A, 30 μM ATP
Sequence of KIF18A (Q8NI77 1-467): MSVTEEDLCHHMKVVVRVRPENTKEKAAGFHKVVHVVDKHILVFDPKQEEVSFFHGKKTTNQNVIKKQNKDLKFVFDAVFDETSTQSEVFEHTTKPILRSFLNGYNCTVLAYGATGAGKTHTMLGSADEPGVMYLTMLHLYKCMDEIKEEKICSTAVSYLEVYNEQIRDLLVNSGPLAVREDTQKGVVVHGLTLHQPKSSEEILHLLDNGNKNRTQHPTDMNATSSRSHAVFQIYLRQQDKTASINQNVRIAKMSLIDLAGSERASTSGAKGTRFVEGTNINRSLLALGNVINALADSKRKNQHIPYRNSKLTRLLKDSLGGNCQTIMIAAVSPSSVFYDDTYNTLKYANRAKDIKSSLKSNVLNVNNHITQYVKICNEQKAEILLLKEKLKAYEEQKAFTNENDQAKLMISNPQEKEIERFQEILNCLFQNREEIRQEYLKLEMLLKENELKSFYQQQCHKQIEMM
Method: In this experiment, an ADP-Glo kit was used to detect the inhibitory activity of the compounds against KIF18A. Each compound was prepared into a 10 mM stock solution with DMSO, which was then diluted at 1:5 to obtain 9 gradients with the initial final concentration set at 10 μM. Meanwhile, a control group and a blank group were also set up. The reaction buffer consisted of 15 mM Tris (pH 7.5), 10 mM MgCl2, and 0.01% Pluronic F-68. 4 nM KIF18A (1467) and the test compound were added to a 384-well plate and incubated at 37° C. for 20 mm. Then, 30 μM ATP was added to initiate the enzymatic reaction, and the plate was incubated at room temperature for 15 min. Finally, the ADP-Glo reagent was added to detect the luminescence intensity, where the luminescence intensity is directly proportional to the ADP content. Inhibition rate (%)=[…]. Sample signal is the value of the compound group, and DMSO signal is the value of the DMSO control group. Then, the inhibition rate at each concentration was calculated, and the IC50 was determined by fitting using the GraphPadPrism 7.0 software.

[10] = Homo sapiens, OVCAR-3, CCK8, 96 h

Structure (SMILES) | IC50 ([1]; Homo sapiens) | EC50 ([2]; Homo sapiens) | IC50 ([3]; Homo sapiens) | F [4] | AUC [4] | Cmax [4] | half-life [4] | EC50 [5] | IC50 [6, 10] | IC50 [7] | IC50 ([8]; Homo sapiens) | IC50 [9] | IC50 [1] | EC50 [2] | IC50 [3] | IC50 ([6]; CCK8, 96 h) | IC50 [8]
O=C(Nc1cc2nccnc2c(N2CCC(F)(F)CC2)n1)c1ccc(NS(=O)(=O)CCO)cc1N1CC2CCC(C2)C1 [Compound 73] | > 10 µM | > 10 µM | 77.9 nM | 72% | 69.1 µM·h | 4.66 µM | 0.158 days | 24.8 nM | 20.2 nM |  | 41.8 nM | 38.4 nM |  |  |  |  | 
O=C(Nc1cn2ccnc2c(N2CCC3(CC2)CC3)n1)c1ccc(NS(=O)(=O)CCO)cc1N1CCC2(CC1)CC2 [Compound 31] | > 10 µM | > 10 µM | 111 nM |  |  |  |  | 64 nM | 41.8 nM | 67.6 nM | 93.8 nM |  |  |  |  |  | 
O=C(Nc1cn2ccnc2c(N2CCC(F)(F)CC2)n1)c1ncc(NS(=O)(=O)CCO)cc1N1CCC2(CC1)CC2 [Compound 37] |  |  |  |  |  |  |  |  |  |  |  | 11.3 nM | > 10 µM | > 10 µM | 611 nM | 234 nM | 
O=C(Nc1cn2ccnc2c(N2CCC(F)(F)CC2)n1)c1cnc(NS(=O)(=O)CCO)cc1N1CCC2(CC1)CC2 [Compound 38] |  |  |  |  |  |  |  |  |  |  |  | 7.6 nM | > 10 µM | > 10 µM | 31.9 nM | 11.9 nM | 132 nM

Further lines, with some results ahead:

IC50 ([1]; Homo sapiens) | EC50 ([2]; Homo sapiens) | IC50 ([3]; Homo sapiens) | F [4] | AUC [4] | Cmax [4] | half-life [4] | EC50 [5] | IC50 [6, 10] | IC50 [7] | IC50 ([8]; Homo sapiens) | IC50 [9] | Structure (SMILES) | IC50 [1] | EC50 [2] | IC50 [3] | IC50 ([6]; CCK8, 96 h) | IC50 [8]
> 10 µM | > 10 µM | 118 nM | 108% | 126 µM·h | 6.31 µM | 5.58 days | 58.5 nM | 53.3 nM | 75 nM | 84.2 nM |  | CS(=O)(=O)Nc1ccc(C(=O)Nc2cc3cccnc3c(N3CCC(F)(F)CC3)n2)c(N2CC3CCC(C3)C2)c1 [Compound 33] |  |  |  |  | 
> 10 µM | > 10 µM | 121 nM | 142% | 436 µM·h | 23.6 µM | 3.37 days | 13.4 nM | 16.2 nM |  | 25.4 nM | 40.8 nM | Cn1ncc2cc(NC(=O)c3ccc(NS(C)(=O)=O)cc3N3CC4CCC(C4)C3)nc(N3CCC(F)(F)CC3)c21 [Compound 56] |  |  |  |  | 
> 10 µM | > 10 µM | 91 nM |  |  |  |  | 33.6 nM | 31.5 nM |  | 68.9 nM | 95.9 nM | CS(=O)(=O)Nc1ccc(C(=O)Nc2cc3nccnc3c(N3CCC(F)(F)CC3)n2)c(N2CCC3(CC2)CC3)c1 [Compound 70] |  |  |  |  | 
> 10 µM | > 10 µM | 46.1 nM |  |  |  |  | 61.8 nM | 22.4 nM | 29.9 nM | 45.3 nM |  | CS(=O)(=O)Nc1ccc(C(=O)Nc2cc3cccnc3c(N3CCC(F)(F)CC3)n2)c(N2CCC3(CC2)CC3)c1 [Compound 32] |  |  |  |  | 
> 10 µM | > 10 µM | 219 nM |  |  |  |  |  | 68.3 nM |  | 177 nM | 62.9 nM | O=C(Nc1cc2ncccc2c(N2CCC(F)(F)CC2)n1)c1ccc(NS(=O)(=O)CCO)cc1N1CCC2(CC1)CC2 [Compound 40] |  |  |  |  | 
